From US20240041042A1, “1-(PYRIDYL)-5-AZINYLPYRAZOLE DERIVATIVES, AND THEIR USE FOR CONTROL OF UNDESIRED PLANT GROWTH” (Bayer Aktiengesellschaft, priority 2020, published 2024)

Tests used:
Assay type in all cases: in vivo
[1] = test system: Verconica persica (VERPE); experiment: Post-emergence herbicidal action against VERPE
How it was run: (§1)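 Greenhouse plants sprayed at the one-leaf stage, 2–3 weeks after sowing, with WP or EC formulations plus 0.5% additive at 600 l/ha water. Activity rated visually after about 3 weeks versus untreated controls (100% = dead, 0% = like control), at 320 g/ha or lower.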

[2] = test system: Abutilon theophrasti (ABUTH); experiment: Pre-emergence herbicidal action against ABUTH; conditions: Dosage column 320 g/ha (title prints 3200 g/ha); scored visually after about 3 weeks; 100% = plants have died
How it was run: (§2)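 Seeds sown in pots and covered with soil; WP or EC formulations sprayed onto the soil surface at 600 l/ha water with 0.5% additive, at 320 g/ha or lower. Greenhouse growth for about 3 weeks, then visual scoring as % effect against untreated controls (100% = plants dead).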

[3] = test system: Alopecurus myosuroides (ALOMY); experiment: Pre-emergence herbicidal action against ALOMY; conditions: scored visually after about 3 weeks, 100% = plants have died
How it was run: as §2

[4] = test system: Amaranthus retroflexus (AMARE); experiment: Post-emergence herbicidal action against AMARE
How it was run: as §1

[5] = test system: Pharbitis purpurea (PHBPU); experiment: Pre-emergence herbicidal action against PHBPU
How it was run: as §2

[6] = test system: Matricaria inodora (MATIN); experiment: Post-emergence herbicidal action against MATIN
How it was run: as §1

Viola tricolor (VIOTR) [7] = experiment: Post-emergence herbicidal action against VIOTR
How it was run: as §1

[8] = test system: Verconica persica (VERPE); experiment: Pre-emergence herbicidal action against VERPE
How it was run: as §2

[9] = test system: Echinochloa crus-galli (ECHCG); experiment: Post-emergence herbicidal action against ECHCG
How it was run: as §1

Viola tricolor (VIOTR) [10] = experiment: Pre-emergence herbicidal action against VIOTR
How it was run: as §2

[11] = test system: Echinochloa crus-galli (ECHCG); experiment: Pre-emergence herbicidal action against ECHCG
How it was run: as §2

Setaria viridis (SETVI) [12] = experiment: Post-emergence herbicidal action against SETVI
How it was run: as §1

Oryza sativa (ORYSA) = conditions: crop plant compatibility, 80 g/ha, effect in comparison to untreated controls
How it was run: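 Effects were read visually as % versus untreated controls (0% = no effect, 100% = death) about 3 weeks post-treatment. Application was a post-emergence spray at the one-leaf stage of WP/EC formulations with 0.5% additive at 600 l/ha. Different dosages are denoted a, b and c.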

Avena fatua (AVEFA) [13] = experiment: Pre-emergence herbicidal action against AVEFA; conditions: visual scoring after about 3 weeks vs untreated controls
How it was run: as §2

[14] = test system: Amaranthus retroflexus (AMARE); experiment: Pre-emergence herbicidal action against AMARE; conditions: visual scoring after about 3 weeks vs untreated controls
How it was run: as §2

[15] = test system: Matricaria inodora (MATIN); experiment: Pre-emergence herbicidal action against MATIN
How it was run: as §2

Setaria viridis (SETVI) [16] = experiment: Pre-emergence herbicidal action against SETVI
How it was run: as §2

[17] = test system: Polygonum convolvulus (POLCO); experiment: Pre-emergence herbicidal action against POLCO
How it was run: as §2

[18] = test system: Alopecurus myosuroides (ALOMY); experiment: Post-emergence herbicidal action against ALOMY; conditions: visual rating about 3 weeks after treatment vs untreated controls (100% = plants have died, 0% = like control plants)
How it was run: as §1

Avena fatua (AVEFA) [19] = experiment: Post-emergence herbicidal action against AVEFA; conditions: visual rating about 3 weeks after treatment
How it was run: as §1

[20] = test system: Pharbitis purpurea (PHBPU); experiment: Post-emergence herbicidal action against PHBPU; conditions: dosage 320 g/ha
How it was run: as §1

Lolium rigidum (LOLRI) [21] = experiment: Post-emergence herbicidal action against LOLRI
How it was run: as §1

Lolium rigidum (LOLRI) [22] = experiment: Pre-emergence herbicidal action against LOLRI
How it was run: as §2

Row | SMILES | Post-emergence action against VERPE in % ([1]; 320 g/ha, VERPE) | Post-emergence action against VERPE in % ([1]; dosage 80 g/ha) | Pre-emergence action against ABUTH [2] | Pre-emergence action against ALOMY ([3]; 80 g/ha) | Pre-emergence action against ALOMY ([3]; 320 g/ha) | Pre-emergence action against PHBPU in % ([5]; dosage 80 g/ha) | Pre-emergence action against PHBPU in % ([5]; dosage 320 g/ha) | Post-emergence action against MATIN in % ([6]; dosage 320 g/ha) | Post-emergence action against VIOTR in % (Viola tricolor (VIOTR) [7]; 80 g/ha) | Post-emergence action against VIOTR in % (Viola tricolor (VIOTR) [7]; 320 g/ha) | Pre-emergence action against VERPE in % ([8]; dosage 320 g/ha) | Post-emergence action against ECHCG in % ([9]; dosage 80 g/ha) | Post-emergence action against ECHCG in % ([9]; dosage 320 g/ha) | Pre-emergence action against VIOTR in % (Viola tricolor (VIOTR) [10]; 320 g/ha, Viola tricolor) | Pre-emergence action against VIOTR in % (Viola tricolor (VIOTR) [10]; dosage 80 g/ha) | Pre-emergence action against ECHCG in % ([11]; dosage 80 g/ha) | Pre-emergence action against ECHCG in % ([11]; dosage 320 g/ha) | Pre-emergence action against AVEFA in % (Avena fatua (AVEFA) [13]; 320 g/ha) | Pre-emergence action against AMARE in % ([14]; 80 g/ha) | Pre-emergence action against AMARE in % ([14]; 320 g/ha) | also measured
1 | Cc1cccnc1-n1nc(OCC(=O)O)c(Br)c1-c1cncc(F)c1 [Example I-204] | 90% | 90% | 80% | 90% | 100% | 90% | 90% | 80% | 80% | 80% | 100% | 80% | 80% | 100% | 100% | 90% | 100% | 80% | 90% | 100% | Post-emergence action against AMARE in % ([4]; 80 g/ha, visual rating about 3 weeks after treatment vs untreated controls (100% = plants have died, 0% = like control plants)): 80%; Post-emergence action against AMARE in % ([4]; 320 g/ha, visual rating about 3 weeks after treatment): 80%; Post-emergence action against SETVI in % (Setaria viridis (SETVI) [12]; dosage 80 g/ha): 90%; Post-emergence action against SETVI in % (Setaria viridis (SETVI) [12]; dosage 320 g/ha): 90%; Post-emergence action against ORYSA in % (Oryza sativa (ORYSA)): 0%; Pre-emergence action against MATIN in % ([15]; dosage 320 g/ha): 90%; Pre-emergence action against SETVI in % (Setaria viridis (SETVI) [16]; dosage 80 g/ha): 90%; Pre-emergence action against SETVI in % (Setaria viridis (SETVI) [16]; dosage 320 g/ha): 100%; Pre-emergence action against POLCO in % ([17]; dosage 80 g/ha): 90%; Pre-emergence action against POLCO in % ([17]; dosage 320 g/ha): 90%; Post-emergence action against ALOMY in % ([18]; 80 g/ha): 90%; Post-emergence action against ALOMY in % ([18]; 320 g/ha): 90%; Post-emergence action against AVEFA in % (Avena fatua (AVEFA) [19]; 320 g/ha): 80%; Post-emergence action against PHBPU in % [20]: 80%
2 | C[C@@H](Oc1nn(-c2ncccc2F)c(-c2ccc(F)nc2)c1C(F)(F)F)C(=O)O [Example I-317] | 90% | 90% | 90% | 100% | 100% | 90% | 90% | 90% | 90% | 90% | 100% | 80% | 90% | 100% | 100% | 100% | 100% | 100% | 100% | 100% | Post-emergence action against LOLRI in % (Lolium rigidum (LOLRI) [21]; dosage 80 g/ha): 90%; Post-emergence action against LOLRI in % (Lolium rigidum (LOLRI) [21]; dosage 320 g/ha): 90%; Post-emergence action against MATIN in % ([6]; dosage 80 g/ha): 90%; Pre-emergence action against VERPE in % ([8]; dosage 80 g/ha): 80%; Pre-emergence action against LOLRI in % (Lolium rigidum (LOLRI) [22]; dosage 80 g/ha): 100%; Pre-emergence action against LOLRI in % (Lolium rigidum (LOLRI) [22]; dosage 320 g/ha): 100%; Pre-emergence action against AVEFA in % (Avena fatua (AVEFA) [13]; 80 g/ha): 90%; Pre-emergence action against MATIN in % ([15]; dosage 80 g/ha): 100%; Pre-emergence action against MATIN in % ([15]; dosage 320 g/ha): 100%; Pre-emergence action against SETVI in % (Setaria viridis (SETVI) [16]; dosage 80 g/ha): 80%; Pre-emergence action against SETVI in % (Setaria viridis (SETVI) [16]; dosage 320 g/ha): 90%; Pre-emergence action against POLCO in % ([17]; dosage 80 g/ha): 100%; Pre-emergence action against POLCO in % ([17]; dosage 320 g/ha): 100%; Post-emergence action against ALOMY in % ([18]; 80 g/ha): 100%; Post-emergence action against ALOMY in % ([18]; 320 g/ha): 100%; Post-emergence action against AVEFA in % (Avena fatua (AVEFA) [19]; 80 g/ha): 90%; Post-emergence action against AVEFA in % (Avena fatua (AVEFA) [19]; 320 g/ha): 90%; Post-emergence action against PHBPU in % [20]: 80%
